The target of assay [1] is T1, Muscarinic acetylcholine receptor M4 (Homo sapiens) (UniProt P08173).
T1 sequence (whole entry): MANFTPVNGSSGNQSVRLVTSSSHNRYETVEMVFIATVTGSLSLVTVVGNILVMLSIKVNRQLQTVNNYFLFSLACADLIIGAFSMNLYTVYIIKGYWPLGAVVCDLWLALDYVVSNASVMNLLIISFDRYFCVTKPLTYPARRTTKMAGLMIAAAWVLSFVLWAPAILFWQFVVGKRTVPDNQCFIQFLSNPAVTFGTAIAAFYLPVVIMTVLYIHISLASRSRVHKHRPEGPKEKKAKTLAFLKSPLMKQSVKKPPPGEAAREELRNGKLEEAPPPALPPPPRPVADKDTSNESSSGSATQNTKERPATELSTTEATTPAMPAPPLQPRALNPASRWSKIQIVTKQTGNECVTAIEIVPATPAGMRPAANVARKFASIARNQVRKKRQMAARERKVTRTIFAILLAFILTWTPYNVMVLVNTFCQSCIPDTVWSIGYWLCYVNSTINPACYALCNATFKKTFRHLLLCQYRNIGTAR
The assay is described as follows: Positive allosteric modulation of human muscarinic M4 receptor expressed in CHO-K1 cells assessed as leftward shift in acetylcholine response treated for 144 secs prior to acetylcholine addition measured for 5 mins by Fluo-4-AM based calcium mobilization assay relative to control. Type of assay: functional, cell-based.

For assay [2], the target named is T2, Muscarinic acetylcholine receptor M4 (Homo sapiens, UniProt P08173).
T2 sequence (P08173 whole entry): T1 sequence (whole entry)
Description: Positive allosteric modulation of human muscarinic M4 receptor expressed in CHO-K1 cells assessed as leftward shift in acetylcholine response treated for 144 secs prior to acetylcholine addition measured for 5 mins by Fluo-4-AM based calcium mobilization assay. Type of assay: functional, cell-based. In general terms: Calcium assays in cells follow changes in intracellular calcium, usually with a dye or a luminescent sensor.

In assay [3] the target is T3, Muscarinic acetylcholine receptor M4 (Rattus norvegicus, UniProt P08485).
T3 sequence (P08485 whole entry): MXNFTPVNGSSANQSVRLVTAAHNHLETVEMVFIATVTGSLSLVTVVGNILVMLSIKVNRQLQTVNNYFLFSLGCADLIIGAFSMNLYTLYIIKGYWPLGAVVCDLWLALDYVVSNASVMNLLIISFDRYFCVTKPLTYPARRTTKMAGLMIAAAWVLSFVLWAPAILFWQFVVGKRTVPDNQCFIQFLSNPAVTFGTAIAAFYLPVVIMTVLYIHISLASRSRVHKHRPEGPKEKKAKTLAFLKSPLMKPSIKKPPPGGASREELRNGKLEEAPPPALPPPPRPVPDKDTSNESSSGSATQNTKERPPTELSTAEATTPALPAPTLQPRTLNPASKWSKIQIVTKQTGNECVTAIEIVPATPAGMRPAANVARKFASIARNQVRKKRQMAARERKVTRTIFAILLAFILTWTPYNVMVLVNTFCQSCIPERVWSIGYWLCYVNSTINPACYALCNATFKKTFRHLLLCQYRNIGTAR
Description: Positive allosteric modulation of rat muscarinic M4 receptor assessed as acetylcholine response.

Consider 36 compounds from ChEMBL document CHEMBL2311451, “Discovery of a selective M₄ positive allosteric modulator based on the 3-amino-thieno[2,3-b]pyridine-2-carboxamide scaffold: development of ML253, a potent and brain penetrant compound that is active in a preclinical model of schizophrenia” (Bioorg Med Chem Lett, 2013).

Some results are limits rather than exact numbers.

For the compound `Cc1nc2sc(C(=O)NCc3cnccn3)c(N)c2c(C)c1Cl`, in assay [1], the %max amounted to 83.1%. Further, the EC50 in assay [2] (read-out: EC50) stood at 0.294 µM.

For `Cc1nc2sc(C(=O)NCc3ccccn3)c(N)c2c(C)c1Cl`, the %max in assay [1] stood at 74.1%. Moreover, the EC50 in assay [2] (read-out: EC50) came to 0.356 µM.

For `COCCCNC(=O)c1sc2nc(C)c(Cl)c(C)c2c1N`, the %max in assay [1] turned out to be 85.7%. Also, in assay [2] (read-out: EC50), the EC50 was found to be 0.418 µM.

As to `Cc1nc2sc(C(=O)NC(C)c3ccncc3)c(N)c2c(C)c1Cl` (centres undefined), the %max in assay [1] came out at 64.1%. In assay [2] (read-out: EC50), the EC50 was 0.6 µM.

For the compound `Cc1nc2sc(C(=O)NC(C)(C)C)c(N)c2c(C)c1Cl`, the %max in assay [1] was 68.3%. The EC50 in assay [2] (read-out: EC50) worked out at 0.307 µM.

For the compound `COc1ccc(NC(=O)c2sc3nc(C)c(Cl)c(C)c3c2N)cc1`, the %max in assay [1] came out at 30.7%. For the same compound, in assay [2] (read-out: EC50), the EC50 was above 10 µM.

Consider `Cc1cc(OCc2ccncc2)nc2sc(C(=O)NCc3cccc(F)c3F)c(N)c12`, for which the EC50 in assay [2] (read-out: EC50) was 0.5 µM; in assay [3], 0.9 µM.

With `Cc1cc(CNC(=O)c2sc3nc(C)c(Cl)c(C)c3c2N)ccn1`, in assay [1], the %max was 75.8%. Moreover, the EC50 in assay [2] (read-out: EC50) stood at 0.061 µM.

`Cc1nc2sc(C(=O)NCc3ccc(Cl)cc3)c(N)c2c(C)c1Cl`: the %max in assay [1] was 33.2%. Besides, the EC50 in assay [2] (read-out: EC50) is 0.18 µM.

Take `Cc1nc2sc(C(=O)NCc3ccccc3)c(N)c2c(C)c1Cl`: the %max in assay [1] was found to be 81%. Moreover, the EC50 in assay [2] (read-out: EC50) stood at 0.108 µM.

Turning to `Cc1nc2sc(C(=O)NC(C)c3cccnc3)c(N)c2c(C)c1Cl` (centres undefined), the %max in assay [1] stood at 57.3%. Also, in assay [2] (read-out: EC50), the EC50 was found to be 0.669 µM.

With `Cc1nc2sc(C(=O)NCc3ccccc3Cl)c(N)c2c(C)c1Cl`, in assay [1], the %max came out at 32.4%. Besides, the EC50 in assay [2] (read-out: EC50) amounted to 0.16 µM.

Regarding `COc1ccc(CNC(=O)c2sc3nc(C)c(Cl)c(C)c3c2N)cc1`, in assay [1], the %max is 83.6%. Also, in assay [2] (read-out: EC50), the EC50 was 0.107 µM.

With `Cc1nc2sc(C(=O)NCCc3cccnc3)c(N)c2c(C)c1Cl`, the EC50 in assay [2] (read-out: pEC50 (converted)) is above 30.2 µM.

With `Cc1nc2sc(C(=O)NCc3ccccc3N(C)C)c(N)c2c(C)c1Cl`, the EC50 in assay [2] (read-out: EC50) was above 30 µM.

Regarding `Cc1nc2sc(C(=O)NC3COC3)c(N)c2c(C)c1Cl`, in assay [1], the %max worked out at 69.9%. Further, the EC50 in assay [2] (read-out: EC50) is 2.01 µM.

Regarding `Cc1nc2sc(C(=O)NCCC3CCCN3C)c(N)c2c(C)c1Cl` (centres undefined), the %max in assay [1] turned out to be 38%. Moreover, the EC50 in assay [2] (read-out: EC50) was determined as 0.926 µM.

Turning to `Cc1nc2sc(C(=O)NCc3ncccn3)c(N)c2c(C)c1Cl`, the %max in assay [1] came out at 51%. Also, the EC50 in assay [2] (read-out: EC50) was 0.81 µM.

On to `Cc1nc2sc(C(=O)NCc3nccs3)c(N)c2c(C)c1Cl`, for which, in assay [1], the %max was 65.1%. The EC50 in assay [2] (read-out: EC50) turned out to be 0.249 µM.

For the compound `Cc1nc2sc(C(=O)NCc3cccnc3)c(N)c2c(C)c1Cl`, the %max in assay [1] came out at 84.9%. Further, the EC50 in assay [2] (read-out: EC50) amounted to 0.208 µM.

For `Cc1ccc(CNC(=O)c2sc3nc(C)c(Cl)c(C)c3c2N)cc1`, in assay [1], the %max worked out at 46.8%. In assay [2] (read-out: EC50), the EC50 was 0.104 µM.

Consider `Cc1nc2sc(C(=O)NC(C)c3ccccn3)c(N)c2c(C)c1Cl` (centres undefined), for which, in assay [1], the %max was determined as 51.1%. For the same compound, the EC50 in assay [2] (read-out: EC50) was 1.37 µM.

As to `CCOc1ccc(NC(=O)c2sc3nc(C)c(Cl)c(C)c3c2N)cc1`, the EC50 in assay [2] (read-out: EC50) was above 30 µM.

On to `Cc1nc2sc(C(=O)NCc3cccc(F)c3F)c(N)c2c(C)c1Cl`, for which, in assay [1], the %max is 79.5%. For the same compound, the EC50 in assay [2] (read-out: EC50) stood at 0.124 µM.

Consider `Cc1nc2sc(C(=O)NCc3ccncn3)c(N)c2c(C)c1Cl`, for which the %max in assay [1] came to 78.5%. Besides, in assay [2] (read-out: EC50), the EC50 was 0.271 µM.

Regarding `Cc1nc2sc(C(=O)NCCc3ccccn3)c(N)c2c(C)c1Cl`, the %max in assay [1] amounted to 61.7%. Further, the EC50 in assay [2] (read-out: EC50) was 0.844 µM.

With `Cc1nc2sc(C(=O)NC(C)C)c(N)c2c(C)c1Cl`, the %max in assay [1] worked out at 77.3%. The EC50 in assay [2] (read-out: EC50) amounted to 0.147 µM.

For the compound `Cc1nc2sc(C(=O)NCCc3ccncc3)c(N)c2c(C)c1Cl`, the %max in assay [1] was found to be 74.5%. For the same compound, the EC50 in assay [2] (read-out: EC50) is 0.128 µM.

Regarding `Cc1nc2sc(C(=O)NCC3CCCCC3)c(N)c2c(C)c1Cl`, the %max in assay [1] was 69.7%. Also, the EC50 in assay [2] (read-out: EC50) is 1.41 µM.

With `Cc1nc2sc(C(=O)NC3CCOCC3)c(N)c2c(C)c1Cl`, the %max in assay [1] came out at 78.6%. Further, the EC50 in assay [2] (read-out: EC50) worked out at 0.289 µM.

With `Cc1nc2sc(C(=O)NCc3ccc(C(F)(F)F)cc3)c(N)c2c(C)c1Cl`, the %max in assay [1] worked out at 33.6%. Besides, the EC50 in assay [2] (read-out: EC50) is 1.75 µM.

Consider `Cc1nc2sc(C(=O)NC3CCCCC3)c(N)c2c(C)c1Cl`, for which, in assay [1], the %max was 41.4%. The EC50 in assay [2] (read-out: EC50) came to 0.226 µM.

Regarding `Cc1nc2sc(C(=O)NC3CCOC3)c(N)c2c(C)c1Cl` (centres undefined), the %max in assay [1] came to 92.2%. Further, in assay [2] (read-out: EC50), the EC50 came to 0.052 µM.

Regarding `Cc1nc2sc(C(=O)NCc3ccnnc3)c(N)c2c(C)c1Cl`, the %max in assay [1] turned out to be 74.5%. In assay [2] (read-out: EC50), the EC50 turned out to be 0.326 µM.

Regarding `Cc1nc2sc(C(=O)NCc3ccc(F)c(F)c3)c(N)c2c(C)c1Cl`, the %max in assay [1] is 42%. In addition, the EC50 in assay [2] (read-out: EC50) amounted to 0.16 µM.

In the case of `Cc1nc2sc(C(=O)NCc3ccc4c(c3)OCO4)c(N)c2c(C)c1Cl`, in assay [1], the %max came to 71.7%. Also, in assay [2] (read-out: EC50), the EC50 was 0.08 µM.
